Laboratory results taken from patent publication US6362171B1, “Aminoaklanoyl-linked conjugates of 2′,5′-oligoadenylate and antiviral uses thereof” (priority 1997, dated 2002).
“And” between values parts separate entries of the source, which are not always exact repeats. Equal entries are not always repeated.

How the values were obtained:
[1] = target: T1, HIV-1 reverse transcriptase (HIV-1 RT) (Human immunodeficiency virus type 1 group M subtype B, UniProt P04585); experiment: Inhibition of HIV-1 reverse-transcriptase activity in culture supernatant of infected Sup T1 cells; format: cell-based; details: for Inhibition of HIV-1 RT activity: 300 μM compound, Sup T1 cells treated 6 hours, supernatant at 96 hours post-infection, mean of duplicate
T1 construct: culture supernatant was removed and HIV-1 RT activity was assayed in triplicate; endogenous in cells; host or cells: Sup T1 cells infected with HIV-1; virion-associated enzyme in the culture supernatant

HIV-1 strain IIIB = experiment: Infected centers assay: inhibition of HIV-1 induced syncytia formation (HIV-1 replication); format: cell-based; details: 300 μM compound; PBL treated 2 hours, infected with HIV-1 IIIB, co-cultured with Sup T1 cells, read at 72 hours; control 144 syncytia/10^4 cells; mean of triplicate
Description: The infected centers assay as described by Henderson et al., Virology 1991, 182, 186, was used to measure the ability of the conjugated trimer core compounds of the invention to inhibit HIV-1 induced syncytia formation, an indicator of HIV-1 replication in T cells. […] The infected PBL were maintained in RPMI-1640 medium supplemented with 10% (v/v) heat-inactivated fetal calf serum at 37° C. in a humidified 5% CO2 in air atmosphere. After 48 hours, the cells were washed twice in Hank's balanced salt solution, serially diluted and seeded into multiple wells of a 96-well microtiter plate. Immediately, 2×10^5 exponentially growing Sup T1 cells were added to each well; Sup T1 cells readily form a syncytium with a cell which is productively infected with HIV-1. The wells were examined daily for the presence of syncytia, using a tissue culture microscope. The first signs of syncytia formation can be seen in 12 hours, with some complete syncytia developing by 24 hours. Final results were read at 72 hours. Each syncytium was counted as a single infected cell. The number of syncytia per seeded cell was determined and expressed as an infected center per infected cell. The number of syncytia per […] was 144 for the control Sup T1 cells.

HIV-1 = details: literature ref [11]; cited from earlier work
RNase L = target: T2, RNase L (Homo sapiens, UniProt Q05823); details: literature ref [10]; cited from earlier work
T2 sequence (Q05823 1-741): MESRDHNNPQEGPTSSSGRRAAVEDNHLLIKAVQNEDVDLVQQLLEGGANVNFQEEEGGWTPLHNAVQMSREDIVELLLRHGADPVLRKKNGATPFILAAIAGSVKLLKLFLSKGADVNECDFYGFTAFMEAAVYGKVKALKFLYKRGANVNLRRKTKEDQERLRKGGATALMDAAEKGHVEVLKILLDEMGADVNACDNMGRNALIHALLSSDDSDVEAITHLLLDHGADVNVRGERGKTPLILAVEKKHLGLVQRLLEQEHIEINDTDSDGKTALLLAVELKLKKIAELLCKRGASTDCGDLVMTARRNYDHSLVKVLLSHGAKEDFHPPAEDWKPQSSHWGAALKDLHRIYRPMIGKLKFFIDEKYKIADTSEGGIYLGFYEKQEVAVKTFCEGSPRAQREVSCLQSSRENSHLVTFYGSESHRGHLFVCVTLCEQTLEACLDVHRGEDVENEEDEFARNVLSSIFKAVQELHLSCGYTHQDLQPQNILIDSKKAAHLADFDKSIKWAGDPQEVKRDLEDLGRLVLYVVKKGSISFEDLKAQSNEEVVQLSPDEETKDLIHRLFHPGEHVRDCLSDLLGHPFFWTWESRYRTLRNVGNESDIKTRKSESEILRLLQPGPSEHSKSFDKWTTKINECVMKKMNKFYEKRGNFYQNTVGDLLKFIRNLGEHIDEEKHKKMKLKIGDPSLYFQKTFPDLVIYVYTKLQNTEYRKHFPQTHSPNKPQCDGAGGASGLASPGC

[2] = target: recombinant human GST-RNase L (Homo sapiens, UniProt Q05823); details: 10 μM compound; mean of duplicate

In the case of Nc1ncnc2c1ncn2[C@@H]1O[C@H](CO)C[C@H]1O [Cordycepin], the inhibition at 300 µM ([1]; SUP-T1, read-out: Inhibition of HIV-1 RT activity) is reported as 13% and the “Inhibition of syncytia formation (fold reduction in infection)” value (“Inhibition … (fold reduction in infection)” for short) (HIV-1 strain IIIB) is reported as 1.5 fold.
With Nc1nc2ncc(CNc3ccc(C(=O)N[C@@H](CCC(=O)NCCCCCC(=O)O[C@@H]4C[C@@H](COP(=O)(O)O[C@@H]5C[C@@H](COP(=O)(O)O[C@@H]6C[C@@H](CO)O[C@H]6n6cnc7c(N)ncnc76)O[C@H]5n5cnc6c(N)ncnc65)O[C@H]4n4cnc5c(N)ncnc54)C(=O)O)cc3)nc2c(=O)[nH]1 [compound 26] the “Inhibition of HIV-1 RT activity” value [1] was 45% and the “Inhibition … (fold reduction in infection)” value (HIV-1 strain IIIB) was 2.4 fold.
For (2′-5′)d^3′(A-A-A) [CCC], the HIV-1 production (HIV-1) is given as “inhibits HIV-1 production”, the “Activation of RNase L” value (RNase L) is given as “no activation” and the “Inhibition of HIV-1 RT activity” value [1] is given as 96%. The “Inhibition … (fold reduction in infection)” value (HIV-1 strain IIIB) was 4.8 fold and the “Activation of RNase L (percent hydrolysis of poly(U)-3′-[32P]pCp)” value [2] was 12%.
With Nc1nc2ncc(CNc3ccc(C(=O)N[C@@H](CCC(=O)NCCCCCC(=O)OC[C@H]4O[C@@H](n5cnc6c(N)ncnc65)[C@H](OP(=O)(O)OC[C@@H]5C[C@@H](OP(=O)(O)OC[C@@H]6C[C@@H](O)[C@H](n7cnc8c(N)ncnc87)O6)[C@H](n6cnc7c(N)ncnc76)O5)[C@@H]4O)C(=O)O)cc3)nc2c(=O)[nH]1 [compound 33] the “Inhibition of HIV-1 RT activity” value [1] was 81%, the “Inhibition … (fold reduction in infection)” value (HIV-1 strain IIIB) was 7.5 fold and 7.2 fold and the “Activation of RNase L (percent hydrolysis of poly(U)-3′-[32P]pCp)” value [2] was 35%.
